Experimental data: patent US8206920B2, “Diagnostic assay for the specific treatment of acute myeloid leukemia” (priority 2007, dated 2012)

Experiments:
ND13 GFP cells = test: Proliferation of cell cultures of transduced ND13 cells expressing GFP with ATRA (FIG. 3); type: cell-based, mouse; conditions: 0.1 μM or 1 μM ATRA, p=0.026 at 24 hours, p<0.001 at 48, 72 and 96 h
Excerpt: (§1) The expression vector encoding GFP contained to the GFP gene under control of the spleen focus-forming virus promoter, integrated into the vector pSF91 (described in detail in Hildinger et al., J. Virol. 73, 4083-4089 (1999)). The MN1 expression vector contained the human MN1 gene under the control of the same promoter in the same vector backbone.

ND13 MN1 cells = test: Proliferation of cell cultures of transduced ND13 cells expressing MN1 with ATRA (FIG. 3); type: cell-based, mouse; conditions: 0.1 μM or 1 μM ATRA, up to 96 h
Excerpt: as §1

Q: What does the source list for CC1=C(/C=C/C(C)=C/C=C/C(C)=C/C(=O)O)C(C)(C)CCC1 [ATRA, all-trans retinoic acid]?
A: proliferation (cell numbers) (ND13 GFP cells): significant reduction of proliferation; proliferation (cell numbers) (ND13 MN1 cells): no significant reduction of proliferation
